Activity calls are given as the source filed them. How the calls were made is not given here.

The test system of the series is CCRIS mutagenicity, Ames/micronucleus/aberration tests. Description: CCRIS mutagenicity studies.

With `CC(O)CN1CC(C)OC1=O` (stereo not given), the mutagenic call runs as follows: (Test System: AMES SALMONELLA TYPHIMURIUM, Strain/Indicator: TA98, Metabolic Activation: HAMSTER, LIVER, S-9, AROCLOR 1254 (10%), Method: STANDARD PLATE) “inactive; negative”; (Test System: AMES SALMONELLA TYPHIMURIUM, Strain/Indicator: TA98, Metabolic Activation: NONE, Method: STANDARD PLATE) “inactive; negative”; (Test System: AMES SALMONELLA TYPHIMURIUM, Strain/Indicator: TA98, Metabolic Activation: RAT, LIVER, S-9, AROCLOR 1254 (10%), Method: STANDARD PLATE) “inactive; negative”; (Test System: AMES SALMONELLA TYPHIMURIUM, Strain/Indicator: TA100, Metabolic Activation: HAMSTER, LIVER, S-9, AROCLOR 1254 (10%), Method: STANDARD PLATE) “inactive; negative”; (Test System: AMES SALMONELLA TYPHIMURIUM, Strain/Indicator: TA100, Metabolic Activation: NONE, Method: STANDARD PLATE) “inactive; negative”; (Test System: AMES SALMONELLA TYPHIMURIUM, Strain/Indicator: TA100, Metabolic Activation: RAT, LIVER, S-9, AROCLOR 1254 (10%), Method: STANDARD PLATE) “inactive; negative”. Moreover, the mutagenic call reads like this: (Test System: AMES SALMONELLA TYPHIMURIUM, Strain/Indicator: TA1535, Metabolic Activation: HAMSTER, LIVER, S-9, AROCLOR 1254 (10%), Method: STANDARD PLATE) “inactive; negative”; (Test System: AMES SALMONELLA TYPHIMURIUM, Strain/Indicator: TA1535, Metabolic Activation: NONE, Method: STANDARD PLATE) “inactive; negative”; (Test System: AMES SALMONELLA TYPHIMURIUM, Strain/Indicator: TA1535, Metabolic Activation: RAT, LIVER, S-9, AROCLOR 1254 (10%), Method: STANDARD PLATE) “inactive; negative”; (Test System: AMES SALMONELLA TYPHIMURIUM, Strain/Indicator: TA1537, Metabolic Activation: HAMSTER, LIVER, S-9, AROCLOR 1254 (10%), Method: STANDARD PLATE) “inactive; negative”; (Test System: AMES SALMONELLA TYPHIMURIUM, Strain/Indicator: TA1537, Metabolic Activation: NONE, Method: STANDARD PLATE) “inactive; negative”; (Test System: AMES SALMONELLA TYPHIMURIUM, Strain/Indicator: TA1537, Metabolic Activation: RAT, LIVER, S-9, AROCLOR 1254 (10%), Method: STANDARD PLATE) “inactive; negative”. Besides, the mutagenic call was “inactive; negative” (Test System: AMES SALMONELLA TYPHIMURIUM, Strain/Indicator: TA1538, Metabolic Activation: HAMSTER, LIVER, S-9, AROCLOR 1254 (10%), Method: STANDARD PLATE); “inactive; negative” (Test System: AMES SALMONELLA TYPHIMURIUM, Strain/Indicator: TA1538, Metabolic Activation: NONE, Method: STANDARD PLATE); “inactive; negative” (Test System: AMES SALMONELLA TYPHIMURIUM, Strain/Indicator: TA1538, Metabolic Activation: RAT, LIVER, S-9, AROCLOR 1254 (10%), Method: STANDARD PLATE); “active; positive. reevaluation of results: positive” (Test System: MOUSE LYMPHOMA, Strain/Indicator: L5178Y (TK+/TK-), Metabolic Activation: NONE, Method: SUSPENSION/PLATE); “active; positive. reevaluation of results: equivocal” (Test System: MOUSE LYMPHOMA, Strain/Indicator: L5178Y (TK+/TK-), Metabolic Activation: RAT, LIVER, S-9, AROCLOR 1254, Method: SUSPENSION/PLATE).

Take `Nc1ccc(Nc2ccc([N+](=O)[O-])cc2)cc1`: the mutagenic call was “inactive; negative” (Test System: AMES SALMONELLA TYPHIMURIUM, Strain/Indicator: TA98(NR), Metabolic Activation: NONE, Method: PREINCUBATION); “active; positive” (Test System: AMES SALMONELLA TYPHIMURIUM, Strain/Indicator: TA98, Metabolic Activation: NONE, Method: PREINCUBATION); “active; positive” (Test System: AMES SALMONELLA TYPHIMURIUM, Strain/Indicator: TA98, Metabolic Activation: RAT, LIVER, S-9, AROCLOR 1254, Method: PREINCUBATION).

The values are drawn from PubChem BioAssay AID1259407 (Chemical Carcinogenesis Research Information System (CCRIS), 2018).
